Experiments:
Format in all cases: cell-based
[1] = system: human and mouse lymphoma cell lines; experiment: Cell proliferation in panel of BTLAhi and BTLAlo lymphoma cell lines
Protocol: FIG. 7A-H. The solHVEM (either Leu39-Va1202 or Pro37-Va1202) protein restores tumor suppressive effects of HVEM.
FIG. 17. sTNFRSF14 inhibits the growth of lymphoma cell lines in vitro. Three lymphoma cell lines (Myc-Bc12, LY-10, Granta) were plated at 1×10^5 cells/ml and were treated with sTNFRSF14 (5 ug/ml) or vehicle each day for 72 hours. After 72 hours cells were counted using a hemocytometer. Each bar represents the average of three independent experiments.
Building on these findings, experiments were performed to test whether solHVEM would have any single agent activity against lymphomas. First, the expression of the BTLA receptor was characterized across a panel of human and mouse lymphoma (mostly DLBCL) cell lines. […] Next, experiments were performed to test if solHVEM had any effect on established BTLA^hi lymphomas in vivo. Briefly, aggressive MYC/BCL2 double positive murine lymphoma cells that express BTLA (BTLA^hi) were transplanted into the flanks of J:Nu nude mice and mice were treated with 20 μg of solHVEM or vehicle (PBS) every three days for a total four times once the engrafted tumors reached a volume of ˜50 mm3. […] Similar results were obtained both in vitro and in vivo with a different soluble HVEM molecule consisting of the extracellular region from amino acids Pro37 to Va1202 (SEQ ID NO. 6).
Lymphoma cell lines DoHH2, Ly-10, Granta, Su-DHL-6 were maintained in RPMI 1640 with 10% fetal bovine serum, 1% L-Glutamine and 1% penicillin/streptomycin. Mouse lymphoma cell line myc-bcl2 was maintained in IMDM-DMEM (50:50) with 10% fetal bovine serum, 1% L-Glutamine, and 1% penicillin/streptomycin. Cell lines were seeded at 5×10^5/mL and were treated with 5 m/m1 of sHVEM. After 24 hours cell number was counted using hemocytometer for a total of 72 hours after treatment.

[2] = system: BCR signaling pathway in BCL1 mouse lymphoma cells; experiment: BTK phosphorylation by flow cytometry in IgM-stimulated BCL1 cells; conditions: solHVEM 10 μg/ml
Protocol: FIG. 4A-E. HVEM blocks BCR signaling in a cell autonomous and BTLA dependent manner. FIG. 4A and FIG. 4B, Quantification of FACS analysis of phosphorylated BTK (pBTK) expression in BCL1 cells after stimulation with anti-IgM in the presence of solHVEM (10 μg/m1) or Ibrutinib (10 nM) without (FIG. 4A) or with (FIG. 4B) the knockdown of BTLA (shBTLA); FIG. 4C, FACS analysis of BTLA expression on purified primary human FL B cells distinguishes samples with high (BTLA^hi) and low (BTLAlo) surface BTLA expression); FIG. 4D, FACS analysis for the indicated signaling molecules in human primary FL B cells that were BTLA^hi or BTLAlo and stimulated with anti-human IgG (3 min; 10 μg/ml and H2O2 1 mM) in the presence or absence of the soluble HVEM ectodomain (solHVEM; 10 μg/ml) (right); FIG. 4E, Percentage of pSyk inhibition was calculated by comparing the ratio of MFI of pSyk+/−solHVEM and was correlated to BTLA ratio of MFI (r=0.697, p=0.03, Purified FL B cells, n=10, grade 1 and grade 2).
Loss of HVEM and BTLA leads to BCR activation in murine lymphomas (FIGS. 2G and 3F). […] Briefly, the BCR signaling pathway in BCL1 mouse lymphoma cells was stimulated with IgM in the presence or absence of solHVEM (10 μg/ml) or the pharmacological BTK inhibitor ibrutinib (10 nM) and BTK phosphorylation was measured as an indicator of BCR pathway activation by flow cytometry. […]

[3] = system: cell lines that expressed high levels of BTLA; experiment: Immunoblot of ERK phosphorylation in treated cell lines; conditions: 5 ug/ml; cell lines with high BTLA
Protocol: FIG. 19. In vitro effect of sTNFRSF14. Immunoblots of cell lines that were treated with 5 ug/ml of sTNFRSF14. Blots were probed as indicated.
Immunoblots were performed using whole cell lysates or supernatants as previously described (Wendel et al., 2004). In brief, 30 μg protein/sample was resolved on SDS-PAGE gels and transferred to Immobilon-P membranes (Millipore). Antibodies were against, pSyk (Cell Signaling Technologies #2712), Syk (Cell Signaling Technologies #2710), pBTK (Cell Signaling Technologies #5082), BTK (Cell Signaling Technologies #3533) pERK (Cell Signaling Technologies #9102), ERK (Cell Signaling Technologies #4370) and Tubulin (Sigma-Aldrich). Enhanced chemiluminescence was used for detection (ECL; GE Healthcare).

Row | Molecule | growth of BTLAhi lymphoma cells ([1]; BTLAhi lines (DOHH2, SU-DHL6, murine MYC/BCL2), 5 μg/ml) | growth of BTLAlo lymphoma cells ([1]; BTLAlo lines (Granta, Su-DHL10), 5 μg/ml) | BTK phosphorylation and activation ([2]; BCL1 cells stimulated with IgM) | BTK inhibition with knockdown of BTLA ([2]; BCL1 cells with shBTLA) | cell growth in cell lines that did not express BTLA ([1]; 5 ug, three days) | cell growth in cell lines with highest BTLA levels ([1]; Myc-Bc12 cell line, 5 ug, three days) | ERK phosphorylation levels [3]
1 | solHVEM: Leu39-Val202 soluble HVEM ectodomain polypeptide of SEQ ID NO. 8 | significant growth inhibition | not affected | blocked BTK phosphorylation and activation | knockdown of BTLA prevented BTK inhibition | – | – | –
2 | sTNFRSF14: Pro37-Val202 soluble HVEM ectodomain polypeptide of SEQ ID NO. 6 (protein, listed as Homo sapiens) PALPSCKEDEYPVGSECCPKCSPGYRVKEACGELTGTVCEPCPPGTYIAHLNGLSKCLQCQMCDPAMGLRASRNCSRTENAVCGCSPGHFCIVQDGDHCAACRAYATSSPGQRVQKGGTESQDTLCQNCPPGTFSPNGTLEECQHQTKCSWLVTKAGAGTSSSHWV | – | – | – | – | did not inhibit cell growth | largest effect on growth | clearly reduced

From patent publication US11261232B2, “TNFRSF14 / HVEM proteins and methods of use thereof” (MEMORIAL SLOAN KETTERING CANCER CENTER, priority 2015, dated 2022)
